Measured values taken from patent US12065436B2, “Cardiac sarcomere inhibitors” (Cytokinetics, Inc., priority 2018, dated 2024).

Molecular target: bovine cardiac myofibrils (full-length cardiac myosin ATPase in the native sarcomere) (Bos taurus (Bovine), UniProt Q9BE39)
Test: Skinned bovine cardiac myofibril ATPase assay (PK/LDH-coupled)
Assay type: biochemical
Details: Ca2+ activating to 75% of maximal rate; for CDMF75 IC15: concentration giving 15% inhibition; for IC50: read-out: CDMF75 IC50
Method in brief: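 Triton-skinned bovine left-ventricle myofibrils (1 mg/mL) in PM 12 buffer (12 mM PIPES, 2 mM MgCl2, pH 6.8) with 50 μM ATP, 0.6 mM EGTA and CaCl2 set for 50% or 75% activation. Steady-state ATPase inhibition followed by PK/LDH-coupled NADH oxidation at 340 nm.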

Chain of bovine cardiac myofibrils (full-length cardiac myosin ATPase in the native sarcomere) (Q9BE39 whole entry): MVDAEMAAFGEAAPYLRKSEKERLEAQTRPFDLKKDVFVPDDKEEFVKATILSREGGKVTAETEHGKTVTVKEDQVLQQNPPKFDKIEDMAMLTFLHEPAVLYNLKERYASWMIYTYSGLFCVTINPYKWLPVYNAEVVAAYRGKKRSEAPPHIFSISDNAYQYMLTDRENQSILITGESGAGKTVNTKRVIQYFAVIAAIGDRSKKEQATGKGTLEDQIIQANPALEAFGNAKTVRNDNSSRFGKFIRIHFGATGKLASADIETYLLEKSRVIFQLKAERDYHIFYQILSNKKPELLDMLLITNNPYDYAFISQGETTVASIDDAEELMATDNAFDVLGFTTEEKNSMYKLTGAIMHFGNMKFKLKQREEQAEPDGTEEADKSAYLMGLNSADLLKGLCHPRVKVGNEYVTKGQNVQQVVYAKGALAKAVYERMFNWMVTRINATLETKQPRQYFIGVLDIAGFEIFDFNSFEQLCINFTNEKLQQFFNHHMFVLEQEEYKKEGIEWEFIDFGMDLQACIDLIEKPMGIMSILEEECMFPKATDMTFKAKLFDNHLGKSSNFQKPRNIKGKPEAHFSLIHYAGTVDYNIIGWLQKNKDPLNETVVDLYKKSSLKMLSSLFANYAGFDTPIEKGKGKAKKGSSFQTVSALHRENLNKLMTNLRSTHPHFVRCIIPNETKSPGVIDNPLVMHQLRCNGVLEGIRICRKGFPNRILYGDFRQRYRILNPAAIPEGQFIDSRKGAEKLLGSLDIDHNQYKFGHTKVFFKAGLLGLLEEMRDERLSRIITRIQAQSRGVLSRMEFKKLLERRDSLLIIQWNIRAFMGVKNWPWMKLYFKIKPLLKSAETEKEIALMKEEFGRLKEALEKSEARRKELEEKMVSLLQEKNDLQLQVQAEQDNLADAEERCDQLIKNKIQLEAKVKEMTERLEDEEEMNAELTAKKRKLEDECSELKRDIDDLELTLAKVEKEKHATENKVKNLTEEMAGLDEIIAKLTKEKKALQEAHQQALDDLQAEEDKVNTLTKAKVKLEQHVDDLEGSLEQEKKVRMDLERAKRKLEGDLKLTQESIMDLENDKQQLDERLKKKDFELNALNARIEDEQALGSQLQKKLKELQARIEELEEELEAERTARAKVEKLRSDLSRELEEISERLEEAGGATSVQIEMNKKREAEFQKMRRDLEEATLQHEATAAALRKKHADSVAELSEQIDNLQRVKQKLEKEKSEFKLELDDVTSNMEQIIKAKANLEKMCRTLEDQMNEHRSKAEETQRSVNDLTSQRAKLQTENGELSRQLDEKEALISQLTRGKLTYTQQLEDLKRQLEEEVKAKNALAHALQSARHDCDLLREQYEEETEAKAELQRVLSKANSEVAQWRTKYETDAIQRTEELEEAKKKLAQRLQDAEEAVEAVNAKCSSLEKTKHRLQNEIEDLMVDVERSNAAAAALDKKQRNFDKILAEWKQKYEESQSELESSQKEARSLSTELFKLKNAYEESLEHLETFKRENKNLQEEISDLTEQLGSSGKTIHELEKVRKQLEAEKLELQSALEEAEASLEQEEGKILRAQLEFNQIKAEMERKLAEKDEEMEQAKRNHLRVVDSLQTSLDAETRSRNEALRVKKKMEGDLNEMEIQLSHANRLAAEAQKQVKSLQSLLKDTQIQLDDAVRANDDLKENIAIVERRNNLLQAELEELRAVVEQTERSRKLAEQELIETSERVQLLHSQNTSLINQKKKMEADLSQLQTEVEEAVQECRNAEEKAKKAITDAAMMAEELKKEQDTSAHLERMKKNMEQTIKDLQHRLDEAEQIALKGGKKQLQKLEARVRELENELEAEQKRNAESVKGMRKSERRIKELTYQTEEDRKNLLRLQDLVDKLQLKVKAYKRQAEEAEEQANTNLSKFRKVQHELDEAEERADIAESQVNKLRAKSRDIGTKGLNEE
Chain of bovine cardiac myofibrils (full-length cardiac myosin ATPase in the native sarcomere) (P85100 whole entry partner): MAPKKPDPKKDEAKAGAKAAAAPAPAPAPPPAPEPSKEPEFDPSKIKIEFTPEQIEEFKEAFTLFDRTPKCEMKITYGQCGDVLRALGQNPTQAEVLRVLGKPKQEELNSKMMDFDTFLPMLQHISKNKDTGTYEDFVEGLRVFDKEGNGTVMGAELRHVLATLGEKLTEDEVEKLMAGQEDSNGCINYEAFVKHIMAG
Chain of bovine cardiac myofibrils (full-length cardiac myosin ATPase in the native sarcomere) (Q3SZE5 whole entry partner): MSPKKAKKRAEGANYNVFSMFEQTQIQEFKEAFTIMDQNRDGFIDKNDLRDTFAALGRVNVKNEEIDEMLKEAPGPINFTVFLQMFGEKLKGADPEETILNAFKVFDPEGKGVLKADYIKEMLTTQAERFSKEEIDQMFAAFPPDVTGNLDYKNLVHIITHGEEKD

SMILES | CDMF75 IC15 | IC50
CC(=O)c1nc(-c2ccc3c(c2)CC[C@H]3NC(=O)c2cnn(C)c2)no1 [Compound 545, N-[(1R)-5-(5-acetyl(1,2,4-oxadiazol-3-yl))indanyl](1-methylpyrazol-4-yl)carboxamide] | 3.2 µM | 13.1 µM
COCCc1nc(-c2ccc3c(c2)CC[C@H]3NC(=O)c2cnn(C)c2)no1 [Compound 546, N-{(1R)-5-[5-(2-methoxyethyl)(1,2,4-oxadiazol-3-yl)]indanyl}(1-methylpyrazol-4-yl)carboxamide] | 15.5 µM | 39.2 µM
C=Cc1nc(-c2ccc3c(c2)CC[C@H]3NC(=O)c2cnn(C)c2)no1 [Compound 547, N-[(1R)-5-(5-vinyl(1,2,4-oxadiazol-3-yl))indanyl](1-methylpyrazol-4-yl)carboxamide] | 0.4 µM | 1.5 µM
CC(=O)OCCc1nc(-c2ccc3c(c2)CC[C@H]3NC(=O)c2cnn(C)c2)no1 [Compound 548, 2-(3-{(1R)-1-[(1-methylpyrazol-4-yl)carbonylamino]indan-5-yl}-1,2,4-oxadiazol-5-yl)ethyl acetate] | 11.8 µM | 39.2 µM
C[C@@H](O)c1nc(-c2ccc3c(c2)CC[C@H]3NC(=O)c2cnn(C)c2)no1 [Compound 550, N-{(1R)-5-[5-((1R)-1-hydroxyethyl)(1,2,4-oxadiazol-3-yl)]indanyl}(1-methylpyrazol-4-yl)carboxamide] | 13.1 µM | 39.2 µM
COC(C)c1nc(-c2ccc3c(c2)CC[C@H]3NC(=O)c2cnn(C)c2)no1 (stereo partly drawn) [Compound 551, N-((1R)-5-(5-(1-methoxyethyl)-1,2,4-oxadiazol-3-yl)-2,3-dihydro-1H-inden-1-yl)-1-methyl-1H-pyrazole-4-carboxamide] | 3.6 µM | 14.6 µM
Cn1cc(C(=O)N[C@@H]2CCc3cc(-c4noc(CCO)n4)ccc32)cn1 [Compound 552, N-{(1R)-5-[5-(2-hydroxyethyl)(1,2,4-oxadiazol-3-yl)]indanyl}(1-methylpyrazol-4-yl)carboxamide] | 13.7 µM | 39.2 µM
CCc1nc(-c2ccc3c(c2)CC[C@H]3NC(=O)c2cnn(CC(O)CO)c2)no1 (stereo partly drawn) [Compound 553, N-{(1R)-5-(5-ethyl(1,2,4-oxadiazol-3-yl))indanyl][1-(2,3-dihydroxypropyl)pyrazol-4-yl]carboxamide] | 1.2 µM | 5.1 µM
CCc1nc(-c2cc(F)c3c(c2)CC[C@H]3NC(=O)c2cnn(C)c2)no1 [Compound 554, (R)-N-(5-(5-ethyl-1,2,4-oxadiazol-3-yl)-7-fluoro-2,3-dihydro-1H-inden-1-yl)-1-methyl-1H-pyrazole-4-carboxamide] | 0.4 µM | 1.5 µM
CCOC(=O)c1cc(C(=O)N[C@@H]2CCc3cc(-c4noc(CC)n4)ccc32)ccn1 [Compound 555, Ethyl (R)-4-((5-(5-ethyl-1,2,4-oxadiazol-3-yl)-2,3-dihydro-1H-inden-1-yl)carbamoyl)picolinate] | 1.0 µM | 3.5 µM
CCc1nc(-c2ccc3c(c2)CC[C@H]3NC(=O)c2ccnc(OC)c2)no1 [Compound 557, (R)-N-(5-(5-ethyl-1,2,4-oxadiazol-3-yl)-2,3-dihydro-1H-inden-1-yl)-2-methoxyisonicotinamide] | 0.4 µM | 1.4 µM
CCc1nc(-c2ccc3c(c2)CC[C@H]3NC(=O)c2ccn(C)c(=O)c2)no1 [Compound 558, (R)-N-(5-(5-ethyl-1,2,4-oxadiazol-3-yl)-2,3-dihydro-1H-inden-1-yl)-1-methyl-2-oxo-1,2-dihydropyridine-4-carboxamide] | 2.0 µM | 8.3 µM
CCc1nc(-c2ccc3c(c2)CC[C@H]3NC(=O)c2ccn(CCO)c(=O)c2)no1 [Compound 559, (R)-N-(5-(5-ethyl-1,2,4-oxadiazol-3-yl)-2,3-dihydro-1H-inden-1-yl)-1-(2-hydroxyethyl)-2-oxo-1,2-dihydropyridine-4-carboxamide] | 1.4 µM | 5.7 µM
CCc1nc(-c2ccc3c(c2)CC[C@H]3NC(=O)c2ccn(C[C@@H](C)O)c(=O)c2)no1 [Compound 560, N-((R)-5-(5-ethyl-1,2,4-oxadiazol-3-yl)-2,3-dihydro-1H-inden-1-yl)-1-((R)-2-hydroxypropyl)-2-oxo-1,2-dihydropyridine-4-carboxamide] | 1.3 µM | 4.7 µM
CCc1nc(-c2ccc3c(c2)CC[C@H]3NC(=O)c2coc(C)n2)no1 [Compound 561, (R)-N-(5-(5-ethyl-1,2,4-oxadiazol-3-yl)-2,3-dihydro-1H-inden-1-yl)-2-methyloxazole-4-carboxamide] | 1.4 µM | 7 µM
CCc1nc(-c2ccc3c(c2F)CC[C@H]3NC(=O)c2cnn(C)c2)no1 [Compound 562, (R)-N-(5-(5-ethyl-1,2,4-oxadiazol-3-yl)-4-fluoro-2,3-dihydro-1H-inden-1-yl)-1-methyl-1H-pyrazole-4-carboxamide] | 0.3 µM | 1 µM
CCOCCn1cc(C(=O)N[C@@H]2CCc3cc(-c4noc(CC)n4)ccc32)cn1 [Compound 573, (R)-1-(2-ethoxyethyl)-N-(5-(5-ethyl-1,2,4-oxadiazol-3-yl)-2,3-dihydro-1H-inden-1-yl)-1H-pyrazole-4-carboxamide] | 0.9 µM | 4.1 µM
C[C@@H](O)Cn1cc(C(=O)N[C@@H]2CCc3cc(-c4noc(C5CC5)n4)ccc32)cn1 [Compound 576, N-((R)-5-(5-cyclopropyl-1,2,4-oxadiazol-3-yl)-2,3-dihydro-1H-inden-1-yl)-1-((R)-2-hydroxypropyl)-1H-pyrazole-4-carboxamide] | 3.5 µM | 15.2 µM
CCc1nc(-c2ccc3c(c2)CC[C@H]3NC(=O)c2ccnc(C(F)F)c2)no1 [Compound 578, (R)-2-(difluoromethyl)-N-(5-(5-ethyl-1,2,4-oxadiazol-3-yl)-2,3-dihydro-1H-inden-1-yl)isonicotinamide] | 0.4 µM | 1.2 µM

Results, then the molecule that gave them:

CDMF75 IC15 | IC50 | SMILES
1.4 µM | 7.6 µM | CCc1nc(-c2ccc3c(c2)CC[C@H]3NC(=O)c2cc(C)ncc2F)no1 [Compound 556, (R)-N-(5-(5-ethyl-1,2,4-oxadiazol-3-yl)-2,3-dihydro-1H-inden-1-yl)-5-fluoro-2-methylisonicotinamide]
0.4 µM | 1.2 µM | CCc1nc(-c2ccc3c(c2)CC[C@H]3NC(=O)c2cn(C)nc2C)no1 [Compound 563, (R)-N-(5-(5-ethyl-1,2,4-oxadiazol-3-yl)-2,3-dihydro-1H-inden-1-yl)-1,3-dimethyl-1H-pyrazole-4-carboxamide]
0.2 µM | 0.6 µM | CCc1nc(-c2ccc3c(c2)CC[C@H]3NC(=O)c2cnoc2C)no1 [Compound 564, (R)-N-(5-(5-ethyl-1,2,4-oxadiazol-3-yl)-2,3-dihydro-1H-inden-1-yl)-5-methylisoxazole-4-carboxamide]
0.2 µM | 0.8 µM | CCc1nc(-c2ccc3c(c2)CC[C@H]3NC(=O)c2conc2C)no1 [Compound 566, (R)-N-(5-(5-ethyl-1,2,4-oxadiazol-3-yl)-2,3-dihydro-1H-inden-1-yl)-3-methylisoxazole-4-carboxamide]
0.3 µM | 1 µM | CCc1nc(-c2ccc3c(c2)CC[C@H]3NC(=O)c2cc(C)nn2C)no1 [Compound 567, (R)-N-(5-(5-ethyl-1,2,4-oxadiazol-3-yl)-2,3-dihydro-1H-inden-1-yl)-1,3-dimethyl-1H-pyrazole-5-carboxamide]
0.4 µM | 1.6 µM | CCc1nc(-c2ccc3c(c2)CC[C@H]3NC(=O)c2cnc(C)n2C)no1 [Compound 568, (R)-N-(5-(5-ethyl-1,2,4-oxadiazol-3-yl)-2,3-dihydro-1H-inden-1-yl)-1,2-dimethyl-1H-imidazole-5-carboxamide]
0.7 µM | 2.8 µM | CCc1nc(-c2ccc3c(c2)CC[C@H]3NC(=O)c2cc(C)on2)no1 [Compound 569, (R)-N-(5-(5-ethyl-1,2,4-oxadiazol-3-yl)-2,3-dihydro-1H-inden-1-yl)-5-methylisoxazole-3-carboxamide]
0.4 µM | 1.4 µM | CCc1nc(-c2ccc3c(c2)CC[C@H]3NC(=O)c2cnn(C)c2C)no1 [Compound 570, (R)-N-(5-(5-ethyl-1,2,4-oxadiazol-3-yl)-2,3-dihydro-1H-inden-1-yl)-1,5-dimethyl-1H-pyrazole-4-carboxamide]
0.4 µM | 1.3 µM | CCc1nc(-c2ccc3c(c2)CC[C@H]3NC(=O)c2cnn(C)c2C)no1 [Compound 571, (R)-N-(5-(5-ethyl-1,2,4-oxadiazol-3-yl)-2,3-dihydro-1H-inden-1-yl)-1,5-dimethyl-1H-pyrazole-4-carboxamide]
0.5 µM | 1.8 µM | CCc1nc(-c2ccc3c(c2)CC[C@H]3NC(=O)c2cnn(CCO)c2C)no1 [Compound 572, (R)-N-(5-(5-ethyl-1,2,4-oxadiazol-3-yl)-2,3-dihydro-1H-inden-1-yl)-1-(2-hydroxyethyl)-5-methyl-1H-pyrazole-4-carboxamide]
1.0 µM | 4.2 µM | CCc1nc(-c2ccc3c(c2)CC[C@H]3NC(=O)c2cnn(CCOC)c2C)no1 [Compound 574, (R)-N-(5-(5-ethyl-1,2,4-oxadiazol-3-yl)-2,3-dihydro-1H-inden-1-yl)-1-(2-methoxyethyl)-5-methyl-1H-pyrazole-4-carboxamide]
1.1 µM | 4.2 µM | CCc1nc(-c2ccc3c(c2)CC[C@H]3NC(=O)c2cnn(CCOC)c2C)no1 [Compound 575, (R)-N-(5-(5-ethyl-1,2,4-oxadiazol-3-yl)-2,3-dihydro-1H-inden-1-yl)-1-(2-methoxyethyl)-5-methyl-1H-pyrazole-4-carboxamide]
